Data taken from patent publication US20030162759A1, “Aldosterone blocker therapy to prevent or treat inflammation-related disorders” (priority 2000, published 2003).
“Also recorded” adds a separate entry of the source.

Legend:
Assay type in all cases: in vivo, rat
aldosterone infused rats = assay: Assay B aldosterone infusion model: myocardial fibrosis (interstitial collagen volume fraction, hydroxyproline); settings: aldosterone/salt treatment, 4 weeks
Method: Assay B: In vivo Aldosterone Infusion Model Male Sprague Dawley rats (n=39; BW=250 g) […] Uni-nephrectomy performed during implantation of mini-pumps 2. Aldosterone (0.75 mg/hr, sc via aizet minipump) 2. […] 1. […] Sacrifice after 4 weeks. Hearts were stained with hematoxylin&eosin and the collagen specific dye picro-sirius red and were analyzed for determination of interstitial collagen volume fraction and morphologic abnormalities (i.e. necrosis, vascular injury). Hydroxyproline concentration was measured in the frozen hearts.

[1] = test system: stroke-prone spontaneously hypertensive rats; assay: Stroke-prone spontaneously hypertensive rats: survival and cerebral injury (FIGS. 37-38); settings: stroke-prone spontaneously hypertensive rats (FIGS. 37, 38)
[2] = test system: Atrial natriuretic factor (ANP); assay: Assay C: ANP mRNA in left ventricle (TaqMan)
Method: The procedure of Assay B was expanded upon in a further study. […] Myocardial tissue from animals in each treatment group was examined after 7, 14, or 30 days of treatment.
Potassium chloride supplementation was added to the saline solution in order to prevent the potential hypokalemia associated with aldosterone excess.
At the time of the surgery, an Alzet 2002 osmotic minipump (Alza Corp., Palo Alto, Calif.) containing either vehicle (9% ethanol/87% propylene glycol/4% dH2O) or 1.0 mg/mL d-aldosterone (Sigma Chemical, St. Louis, Mo.) was inserted subcutaneously at the nape of the neck. Aldosterone was administered at a dose of 0.75 g/hour. […] Animals were sacrificed from each group (n=8-13) after 7, 14, or 30 days of treatment. […]
The fluorogenic 5′-nuclease assay (TaqMan PCR) using Applied Biosystems' 7700 Sequence Detection System (Applied Biosystems, Foster City, Calif.) allowed for real time detection/quantitation of a specific gene by monitoring the increase in fluorescence of a gene-specific, dye-labeled oligonucleotide probe. […] When the probe was annealed to the target gene, fluorescence of 6FAM was prevented by the close proximity of TAMRA. The exonuclease activity of Taq polymerase released the dyes from the oligonucleotide probe by displacing the probe from the target sequence resulting in fluorescence excitation in direct proportion to the amount of target message present. […]

[3] = test system: angiotensin II infused, captopril treated stroke prone spontaneously hypertensive rats; assay: Angiotensin II infused, captopril treated stroke prone spontaneously hypertensive rats: urinary protein excretion and renal injury (FIGS. 35-36)
osteopontin = assay: Assay B aldosterone infusion model: serum (circulating) osteopontin at 28 days; settings: NaCl 1% drinking rats with aldosterone and eplerenone
Method: Assay B: In vivo Aldosterone Infusion Model Male Sprague Dawley rats (n=39; BW=250 g) […] Uni-nephrectomy performed during implantation of mini-pumps 2. Aldosterone ([…], sc via aizet minipump) 2. […] Sacrifice after 4 weeks.

[4] = test system: angiotensin II infused rats; assay: Assay A angiotensin II infusion model: urinary Na+/K+ ratio (natriuresis index); settings: saline-drinking rats, eplerenone 100 mpk
Source text: 24-hours food and fluid intake and urine output measured every day Urine samples collected every day for determination of urinary electrolytes. Electrolyte excretion. The ratio between daily urinary Na^+ excretion and urinary K^+ excretion (U Na^+/K^+ ratio) was used as an index for natriuresis. Urinary Na^+/K^+ ratio was similar in all groups before the start of the treatments, and increased similarly in all animals upon initiation of the high salt diet.

COX-2 = assay: Assay B aldosterone infusion model: COX-2 mRNA in heart by quantitative RT-PCR (Taqman)
Method: Assay B: In vivo Aldosterone Infusion Model Male Sprague Dawley rats (n=39; BW=250 g) […] Uni-nephrectomy performed during implantation of mini-pumps […] Aldosterone ([…], sc via aizet minipump) […] 1. […] Sacrifice after 4 weeks. Hearts were harvested and divided by half through a transverse section at the mid-ventricles: The upper half was stored into formalin. The bottom part was snap-frozen in liquid nitrogen for biochemical analysis. Determination of osteopontin and COX-2 was performed by quantitative RT-PCR (Taqman). Osteopontin was also identified in the heart by immunohistochemistry.

`C[C@]12CCC(=O)C=C1CC[C@@H]1[C@@H]2[C@@H](O)C[C@]2(C=O)[C@@H](C(=O)CO)CC[C@@H]12` [aldosterone] was tested. Which “Myocardial fibrosis (interstitial collagen volume fraction, hydroxyproline concentration)” value (aldosterone infused rats) did it give?
Its value is “absence of myocardial fibrosis”.

What does the source list for `COC(=O)[C@@H]1CC2=CC(=O)CC[C@]2(C)[C@@]23O[C@@H]2C[C@@]2(C)[C@@H](CC[C@@]24CCC(=O)O4)[C@H]13` [eplerenone, Pregn-4-ene-7,21-dicarboxylic acid, 9,11-epoxy-17-hydroxy-3-oxo-, γ-lactone, methyl ester, (7α, 11α, 17β) -]?
Cerebral injury [1]: reduced cerebral injury; also recorded: decrease in cerebral injury; ANP mRNA upregulation ([2]; after 30 days of treatment): significantly reduced; ANP mRNA ([2]; mean ± SEM after 30 days of treatment, relative to cyclophilin expression, eplerenone 100 mg/kg/day): 9.20 ± 2.44 AU; Urinary protein excretion ([3]; captopril treated SHRSP (FIG. 35)): inhibition of increased urinary protein excretion; Histopathological scores for renal injury ([3]; captopril treated SHRSP (FIG. 36)): reduction in histopathological scores for renal injury; Circulating (serum) osteopontin levels (osteopontin): marked decrease in circulating osteopontin levels; Urinary Na+/K+ ratio (diuretic or natriuretic effect) [4]: did not produce a significant diuretic or natriuretic effect; COX-2 upregulation in myocardium (COX-2; aldosterone infused rats (FIG. 31)): prevention by eplerenone of COX-2 upregulation; COX-2 relative mRNA expression (COX-2; heart, quantitative RT-PCR, aldosterone/salt rats, 4 weeks, eplerenone 100 mpk p.o.): 1.8±0.36
